# Reference: PubChem BioAssay (NCI)
#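 Interpolation was linear, between the two tested concentrations surrounding the appropriate level; five concentrations were tested over 48 hours in 96-well plates. GI50 is the concentration that inhibits growth by half. TGI is the concentration that stops growth completely.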
# Assays:
# Experiment in all cases: NCI-60 cell line screen, 48 h
# 786-0 renal = system: 786-0 renal
# A498 renal = system: A498 renal
# ACHN renal = system: ACHN renal
# BT-549 breast = system: BT-549 breast
# CAKI-1 renal = system: CAKI-1 renal
# COLO 205 colon = system: COLO 205 colon
# DU-145 prostate = system: DU-145 prostate
# EKVX NSCLC = system: EKVX NSCLC
# HCC-2998 colon = system: HCC-2998 colon
# HCT-116 colon = system: HCT-116 colon
# HCT-15 colon = system: HCT-15 colon
# HOP-62 NSCLC = system: HOP-62 NSCLC
# HOP-92 NSCLC = system: HOP-92 NSCLC
# HS 578T breast = system: HS 578T breast
# HT29 colon = system: HT29 colon
# IGROV1 ovarian = system: IGROV1 ovarian
# KM12 colon = system: KM12 colon
# LOX IMVI melanoma = system: LOX IMVI melanoma
# M14 melanoma = system: M14 melanoma
# MALME-3M melanoma = system: MALME-3M melanoma
# MCF7 breast = system: MCF7 breast
# MDA-MB-231 breast = system: MDA-MB-231 breast
# MDA-MB-435 = system: MDA-MB-435
# NCI-H226 lung = system: NCI-H226 lung
# NCI-H23 lung = system: NCI-H23 lung
# NCI-H460 lung = system: NCI-H460 lung
# NCI-H522 lung = system: NCI-H522 lung
# OVCAR-3 ovarian = system: OVCAR-3 ovarian
# OVCAR-4 ovarian = system: OVCAR-4 ovarian
# OVCAR-5 ovarian = system: OVCAR-5 ovarian
# PC-3 prostate = system: PC-3 prostate
# RPMI-8226 leukemia = system: RPMI-8226 leukemia
# RXF 393 renal = system: RXF 393 renal
# SF-268 CNS = system: SF-268 CNS
# SF-295 CNS = system: SF-295 CNS
# SF-539 CNS = system: SF-539 CNS
# SK-MEL-2 melanoma = system: SK-MEL-2 melanoma
# SK-MEL-28 melanoma = system: SK-MEL-28 melanoma
# SK-MEL-5 melanoma = system: SK-MEL-5 melanoma
# SK-OV-3 ovarian = system: SK-OV-3 ovarian
# SN12C renal = system: SN12C renal
# SNB-19 CNS = system: SNB-19 CNS
# SNB-75 CNS = system: SNB-75 CNS
# SR leukemia = system: SR leukemia
# SW-620 colon = system: SW-620 colon
# T-47D breast = system: T-47D breast
# TK-10 renal = system: TK-10 renal
# UACC-257 melanoma = system: UACC-257 melanoma
# UACC-62 melanoma = system: UACC-62 melanoma
# UO-31 renal = system: UO-31 renal
# A549 NSCLC = system: A549 NSCLC
# CCRF-CEM leukemia = system: CCRF-CEM leukemia
# HL-60(TB) leukemia = system: HL-60(TB) leukemia
# K-562 leukemia = system: K-562 leukemia
# MOLT-4 leukemia = system: MOLT-4 leukemia
# NCI/ADR-RES ovarian = system: NCI/ADR-RES ovarian
# OVCAR-8 ovarian = system: OVCAR-8 ovarian
# U251 CNS = system: U251 CNS
structure (smiles),measurement,setting,value
CCCCCCCCCCCCCCCCN(CC)CC,GI50,786-0 renal,1.69 µM
same,TGI,786-0 renal,3.1 µM
same,GI50,A498 renal,17.9 µM
same,TGI,A498 renal,37.2 µM
same,GI50,ACHN renal,2.1 µM
same,TGI,ACHN renal,4.45 µM
same,GI50,BT-549 breast,1.87 µM
same,TGI,BT-549 breast,3.89 µM
same,GI50,CAKI-1 renal,1.69 µM
same,TGI,CAKI-1 renal,3.24 µM
same,GI50,COLO 205 colon,2.01 µM
same,TGI,COLO 205 colon,3.82 µM
same,GI50,DU-145 prostate,2.79 µM
same,TGI,DU-145 prostate,7.52 µM
same,GI50,EKVX NSCLC,2.02 µM
same,TGI,EKVX NSCLC,4.76 µM
same,GI50,HCC-2998 colon,1.77 µM
same,TGI,HCC-2998 colon,3.3 µM
same,GI50,HCT-116 colon,1.77 µM
same,TGI,HCT-116 colon,3.22 µM
same,GI50,HCT-15 colon,1.88 µM
same,TGI,HCT-15 colon,3.66 µM
same,GI50,HOP-62 NSCLC,2.87 µM
same,TGI,HOP-62 NSCLC,8.77 µM
same,GI50,HOP-92 NSCLC,1.74 µM
same,TGI,HOP-92 NSCLC,3.94 µM
same,GI50,HS 578T breast,3.47 µM
same,TGI,HS 578T breast,15.8 µM
same,GI50,HT29 colon,2.13 µM
same,TGI,HT29 colon,4.59 µM
same,GI50,IGROV1 ovarian,1.79 µM
same,TGI,IGROV1 ovarian,3.36 µM
same,GI50,KM12 colon,1.87 µM
same,TGI,KM12 colon,3.59 µM
same,GI50,LOX IMVI melanoma,1.73 µM
same,TGI,LOX IMVI melanoma,3.38 µM
same,GI50,M14 melanoma,1.94 µM
same,TGI,M14 melanoma,3.84 µM
same,GI50,MALME-3M melanoma,1.92 µM
same,TGI,MALME-3M melanoma,4.35 µM
same,GI50,MCF7 breast,2.33 µM
same,TGI,MCF7 breast,6.09 µM
same,GI50,MDA-MB-231 breast,1.75 µM
same,TGI,MDA-MB-231 breast,3.21 µM
same,GI50,MDA-MB-435,1.95 µM
same,TGI,MDA-MB-435,3.86 µM
same,GI50,NCI-H226 lung,3.74 µM
same,TGI,NCI-H226 lung,16.9 µM
same,GI50,NCI-H23 lung,2.83 µM
same,TGI,NCI-H23 lung,9 µM
same,GI50,NCI-H460 lung,1.92 µM
same,TGI,NCI-H460 lung,3.56 µM
same,GI50,NCI-H522 lung,1.76 µM
same,TGI,NCI-H522 lung,3.48 µM
same,GI50,OVCAR-3 ovarian,2.87 µM
same,TGI,OVCAR-3 ovarian,7.99 µM
same,GI50,OVCAR-4 ovarian,3.31 µM
same,TGI,OVCAR-4 ovarian,11.1 µM
same,GI50,OVCAR-5 ovarian,1.94 µM
same,TGI,OVCAR-5 ovarian,4.26 µM
same,GI50,PC-3 prostate,2.16 µM
same,TGI,PC-3 prostate,5.97 µM
same,GI50,RPMI-8226 leukemia,2.23 µM
same,TGI,RPMI-8226 leukemia,4.75 µM
same,GI50,RXF 393 renal,1.88 µM
same,TGI,RXF 393 renal,4.2 µM
same,GI50,SF-268 CNS,2.64 µM
same,TGI,SF-268 CNS,8.31 µM
same,GI50,SF-295 CNS,1.73 µM
same,TGI,SF-295 CNS,3.55 µM
same,GI50,SF-539 CNS,1.67 µM
same,TGI,SF-539 CNS,3.06 µM
same,GI50,SK-MEL-2 melanoma,3.01 µM
same,TGI,SK-MEL-2 melanoma,8.9 µM
same,GI50,SK-MEL-28 melanoma,1.91 µM
same,TGI,SK-MEL-28 melanoma,3.84 µM
same,GI50,SK-MEL-5 melanoma,1.94 µM
same,TGI,SK-MEL-5 melanoma,3.79 µM
same,GI50,SK-OV-3 ovarian,3.1 µM
same,TGI,SK-OV-3 ovarian,9.8 µM
same,GI50,SN12C renal,2.21 µM
same,TGI,SN12C renal,5.53 µM
same,GI50,SNB-19 CNS,3.29 µM
same,TGI,SNB-19 CNS,13.9 µM
same,GI50,SNB-75 CNS,2.39 µM
same,TGI,SNB-75 CNS,9.03 µM
same,GI50,SR leukemia,1.99 µM
same,TGI,SR leukemia,4.51 µM
same,GI50,SW-620 colon,2.03 µM
same,TGI,SW-620 colon,3.9 µM
same,GI50,T-47D breast,3.39 µM
same,TGI,T-47D breast,17 µM
same,GI50,TK-10 renal,1.71 µM
same,TGI,TK-10 renal,3.4 µM
same,GI50,UACC-257 melanoma,1.99 µM
same,TGI,UACC-257 melanoma,4.98 µM
same,GI50,UACC-62 melanoma,1.75 µM
same,TGI,UACC-62 melanoma,3.28 µM
same,GI50,UO-31 renal,1.6 µM
same,TGI,UO-31 renal,3.47 µM
O=C(O)C12CCC(CC1=O)C2 (stereo unspecified),TGI,786-0 renal,> 100 µM
same,TGI,A549 NSCLC,> 100 µM
same,TGI,ACHN renal,> 100 µM
same,TGI,BT-549 breast,> 100 µM
same,TGI,CAKI-1 renal,> 100 µM
same,TGI,CCRF-CEM leukemia,> 100 µM
same,TGI,COLO 205 colon,> 100 µM
same,TGI,EKVX NSCLC,> 100 µM
same,TGI,HCT-15 colon,> 100 µM
same,TGI,HL-60(TB) leukemia,> 100 µM
same,TGI,HOP-62 NSCLC,> 100 µM
same,TGI,HOP-92 NSCLC,> 100 µM
same,TGI,HS 578T breast,> 100 µM
same,TGI,HT29 colon,> 100 µM
same,TGI,IGROV1 ovarian,> 100 µM
same,TGI,K-562 leukemia,> 100 µM
same,TGI,KM12 colon,> 100 µM
same,TGI,LOX IMVI melanoma,> 100 µM
same,TGI,M14 melanoma,> 100 µM
same,TGI,MALME-3M melanoma,> 100 µM
same,TGI,MCF7 breast,> 100 µM
same,TGI,MDA-MB-435,> 100 µM
same,TGI,MOLT-4 leukemia,> 100 µM
same,TGI,NCI-H226 lung,> 100 µM
same,TGI,NCI-H23 lung,> 100 µM
same,TGI,NCI-H460 lung,> 100 µM
same,TGI,NCI-H522 lung,> 100 µM
same,TGI,NCI/ADR-RES ovarian,> 100 µM
same,TGI,OVCAR-3 ovarian,> 100 µM
same,TGI,OVCAR-4 ovarian,> 100 µM
same,TGI,OVCAR-5 ovarian,> 100 µM
same,TGI,OVCAR-8 ovarian,> 100 µM
same,TGI,PC-3 prostate,> 100 µM
same,TGI,RPMI-8226 leukemia,> 100 µM
same,TGI,SF-268 CNS,> 100 µM
same,TGI,SF-295 CNS,> 100 µM
same,TGI,SK-MEL-2 melanoma,> 100 µM
same,TGI,SK-MEL-28 melanoma,> 100 µM
same,TGI,SK-MEL-5 melanoma,> 100 µM
same,TGI,SK-OV-3 ovarian,> 100 µM
same,TGI,SN12C renal,> 100 µM
same,TGI,SNB-19 CNS,> 100 µM
same,TGI,SNB-75 CNS,> 100 µM
same,TGI,SR leukemia,> 100 µM
same,TGI,SW-620 colon,> 100 µM
same,TGI,T-47D breast,> 100 µM
same,TGI,TK-10 renal,> 100 µM
same,TGI,U251 CNS,> 100 µM
same,TGI,UACC-257 melanoma,> 100 µM
same,TGI,UACC-62 melanoma,> 100 µM
same,TGI,UO-31 renal,> 100 µM
